Test results reported in patent publication US7470715B2, “Estrogen modulators” (Pfizer Inc., priority 2005, dated 2008).

What was measured:
[1] = target: T1, ligand binding domain of the estrogen receptor alpha chain (ERαLBD) (Homo sapiens, UniProt P03372); test: ER agonist cell assay (ERα), Huh-7 co-transfection, luciferase; type: cell-based; settings: for EC50: Huh-7 cells co-transfected with pG5luc and ERαLBD, overnight incubation, luciferase; for ERα % of Max E2 Response: percent of the maximum estradiol fold change, Huh-7, pG5luc and ERαLBD
T1 construct: expressed in transfected cells; host or cells: Huh-7 human hepatoma cells, transient transfection with FuGENE 6
T1 sequence (P03372 311-547 limits assumed): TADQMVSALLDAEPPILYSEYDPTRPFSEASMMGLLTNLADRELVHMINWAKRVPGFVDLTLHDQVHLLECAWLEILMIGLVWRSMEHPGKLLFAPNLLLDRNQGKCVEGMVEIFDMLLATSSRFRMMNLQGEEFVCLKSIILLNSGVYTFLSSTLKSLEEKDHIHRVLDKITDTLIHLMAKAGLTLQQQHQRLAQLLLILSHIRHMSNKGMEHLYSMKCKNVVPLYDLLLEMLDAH
Method: (§1) The compounds ability to mimic the effects of estrogen on the estrogen receptor were determined in a whole cell assay as described immediately below.
(§2) Experimental Procedure for ER Agonist Cell Assay
(§3) • Cell line and plasmids: The human hepatoma cell line Huh-7 was used for co-transfections. Cells were maintained in culture medium and split when they reached 80-90% confluency. Three plasmids were routinely used in the assay. pG5luc contained the firefly luciferase gene and was obtained from Promega. […] Cell Culture Media and Reagents:
(§4) Culture medium: DMEM (phenol red free), 10% charcoal treated HyClone serum, 1% L-glutamine, and 1% penicillin/streptomycin
(§5) Transfection medium: DMEM (phenol red free) and 10% charcoal treated HyClone serum
(§6) Luciferase reagents: Dual-Glo Luciferase Kit (Promega cat #E2980) was used for determination of luciferase activity.
(§7) Transient transfections were preformed using the lipophilic reagent FuGENE 6 (Roche). Cells were split and seeded at 7.2×10^6/150 cm^2 flask in 20 mL of transfection medium. 5-6 hrs later cells were co-transfected with either pG5luc and ERαLBD or pG5luc and ERβLBD(pm418). Transfected cells grew overnight and were then used the next day.
(§8) Cells transfected 24 hrs earlier were harvested, counted, and seeded in wells containing compound at a density of 1×10^4 cells/well. […] Cells were incubated overnight at 37° C. and 5% CO2 in the presence of compound. The following day medium was aspirated from the wells and 100 ul of Dual-Glo™ Luciferase Reagent were added to each well. Plates were incubated at room temperature for 20 minutes and firefly luminescence was measured on a luminometer. Next, 50 ul of Dual-Gbo™ Stop & Glo® Reagent were added to each well and after 20 minutes at room temperature the Renilla luminescence was measured on a luminometer. Values from each well were normalized by dividing the firefly luminescence by the Renilla luminescence. Estradiol was used as the standard and run in each assay. The fold induction over background for each compound was compared to the maximum fold induction for estradiol in each assay. […] Those compounds that were not tested, or the data was unavailable are marked as NT.

[2] = target: ligand binding domain of the estrogen receptor beta chain (ERβLBD) that contained a point mutation at amino acid residue 418 (pm418) (Homo sapiens, UniProt Q92731); test: ER agonist cell assay (ERβ), Huh-7 co-transfection, luciferase; type: cell-based; settings: for EC50: Huh-7 cells co-transfected with pG5luc and ERβLBD(pm418), overnight incubation, luciferase; for ERβ % of Max E2 Response: percent of the maximum estradiol fold change, Huh-7, pG5luc and ERβLBD(pm418)
Method: as §1, §2, §3, §4, §5, §6, §7, §8

[3] = test system: hairless female SKH, 1-hr mice; test: Animal model for reversal of wrinkles: skin thickness model, topical dosing, skin thickness and hyaluronic acid; type: in vivo, mouse; settings: QD, three days
Source text: Animal Model for Reversal of Wrinkles
Uzuka et al. describes an increase in mouse back skin water content, hyaluronic acid (HA) content, and hyaluronic acid synthetase activity following topical application or subcutaneous injection of estradiol (Biochimica et Biophysica Acta, 627, 199-206, 1980; Biochimica et Biophysica Acta 673, 387-393, 1981). […] Thus, this model may be used to as a preliminary screen to assess the potential for estrogen modulators to alleviate wrinkles in human skin.
The skin thickness model uses hairless female SKH, 1-hr mice. Mice aged to approximately 11 weeks are introduced into the laboratory environment and acclimated for at least 1 week prior to use in the study may be used. Each group typically consisted of 7 animals that may be run in parallel with vehicle and the positive control estradiol. Based on binding and/or cellular assay data, compounds are chosen for screening in this model. Those compounds include the products of Examples, 2, 9, 15, 46, 47, 48, 51, 52, 61, 135, and 137. Prior to topical application to mouse dorsal skin, a sufficient quantity of each compound is dissolved in a solvent generally consisting of ethanol and propylene glycol (70/30% v/v) (vehicle) to achieve the final concentration specified in Table C below. Animals are dosed topically QD or BID, for three days. Each dose consisted of 100 microliters of vehicle or drug applied uniformly to the entire dorsal surface (˜18 cm^2). All animals are sacrificed approximately 18-24 hours after the final dose. Skin thickness (ST) is measured using a caliper. HA is extracted from the skin and quantitated using commercially-available enzyme-linked immunosorbent assays (ELISAs)(HA).
Data are presented as percent of the estradiol response after subtracting out the ST for vehicle-treated mouse skin. The estradiol response is set to 100% and the vehicle resoibse becines 0%.

For `CCCOCC1(c2onc(-c3ccc(O)cc3)c2-c2ccccc2)CC1` [Example 9, 4-[4-Phenyl-5-(1-propoxymethyl-cyclopropyl)-isoxazol-3-yl]-phenol], the EC50 [1] was 177 nM, the “ERα % of Max E2 Response” value [1] was 40.2% and the EC50 [2] was 41.3 nM. For the same compound, the “ERβ % of Max E2 Response” value [2] was 2.63%, the “HA (hyaluronic acid), percent of the estradiol response” value (“HA (hyaluronic acid), percent” below) ([3]; 3% topical) was 58% and the “ST (skin thickness), percent of the estradiol response” value (shortened to “ST (skin thickness), percent”) ([3]; 3% topical) was 49%.

In the case of `Cl.Oc1ccc(-c2noc(C3(CNc4ccc5c(c4)CCC5)CC3)c2-c2ccccc2)cc1` [Example 23, 4-{5-[1-(Indan-5-ylaminomethyl)-cyclopropyl]-4-phenyl-isoxazol-3-yl}-phenol hydrochloride salt], the EC50 [1] is reported as 559 nM, the “ERα % of Max E2 Response” value [1] is reported as 21% and the EC50 [2] is reported as 3860 nM. For the same compound, the “ERβ % of Max E2 Response” value [2] was 5.5% and the melting point was 204 to 205 °C.

With `O=C(OCC1(c2onc(-c3ccc(O)cc3)c2-c2ccccc2)CC1)C1CC1` [Example 51] the EC50 [1] was 152 nM, the “ERα % of Max E2 Response” value [1] was 63.8% and the EC50 [2] was 84.2 nM. The “ERβ % of Max E2 Response” value [2] was 75.2%, the “HA (hyaluronic acid), percent” value ([3]; 1% topical) was 35% and the “ST (skin thickness), percent” value ([3]; 1% topical) was 19%.

For `CC(C)COC(=O)C1(c2onc(-c3ccc(O)cc3)c2-c2ccccc2)CC1` [Example 60, 1-[3-(4-Hydroxy-phenyl)-4-phenyl-isoxazol-5-yl]-cyclopropanecarboxylic acid isobutyl ester], the EC50 [1] was 12.9 nM, the “ERα % of Max E2 Response” value [1] was 23.3% and the EC50 [2] was greater than 10000 nM. For the same compound, the “ERβ % of Max E2 Response” value [2] was greater than 3.71% and the melting point was 109 to 110 °C.

In the case of `CCC(NCC1(c2onc(-c3ccc(O)cc3)c2-c2ccccc2)CC1)c1ccccc1` (racemic) [Example 25, (±)-4-(4-Phenyl-5-{1-[(1-phenyl-propylamino)-methyl]-cyclopropyl}-isoxazol-3-yl)-phenol], the EC50 [1] is reported as 26.5 nM, the “ERα % of Max E2 Response” value [1] is reported as 18.2% and the EC50 [2] is reported as greater than 10000 nM. The “ERβ % of Max E2 Response” value [2] was greater than 0.571% and the melting point was 126 to 127 °C.

With `CCC(O)(CC)C1(c2onc(-c3ccc(O)cc3)c2-c2ccccc2)CC1` [Example 50, 4-{5-[1-(1-Ethyl-1-hydroxy-propyl)-cyclopropyl]-4-phenyl-isoxazol-3-yl}-phenol] the EC50 [1] was 124 nM, the “ERα % of Max E2 Response” value [1] was 80.2% and the “ERβ % of Max E2 Response” value [2] was 1%. The melting point was 118 to 119 °C.

For `Oc1ccc(-c2noc(C3CC3)c2-c2ccccc2)cc1` [Example 35, 4-(5-Cyclopropyl-4-phenyl-isoxazol-3-yl)-phenol], the EC50 [1] was 171 nM, the “ERα % of Max E2 Response” value [1] was 25% and the EC50 [2] was 130 nM. For the same compound, the “ERβ % of Max E2 Response” value [2] was 5.78% and the melting point was 197 to 200 °C.

`Cl.Oc1ccc(-c2noc(C3(CNc4ccncc4)CC3)c2-c2ccccc2)cc1` gave a melting point of 316 to 317 °C.

With `C[C@H](O)C1(c2onc(-c3ccc(O)cc3)c2-c2ccccc2)CC1` [Example 100, Alt. D, (S)-(+)-4-{5-[1-(1-Hydroxy-ethyl)-cyclopropyl]-4-phenyl-isoxazol-3-yl}-phenol] the melting point was 220 to 221 °C.

In the case of `NCC1(c2onc(-c3ccc(O)cc3)c2-c2ccccc2)CC1` [Example 105, 4-{5-[1-(Aminomethyl)cyclopropyl]-4-phenylisoxazol-3-yl}phenol], the melting point is reported as 220 to 225 °C.

For `Oc1ccc(-c2noc(C3(CNCC4CCCO4)CC3)c2-c2ccccc2)cc1` (racemic) [Example 30, (±)-4-[4-Phenyl-5-(1-{[(tetrahydro-furan-2-ylmethyl)-amino]-methyl}-cyclopropyl)-isoxazol-3-yl]-phenol], the melting point was 276 to 277 °C.

For `CC(C)C(=O)OCC1(c2onc(-c3ccc(O)cc3)c2-c2ccccc2)CC1` [Example 52], the EC50 [1] was 138 nM, the “ERα % of Max E2 Response” value [1] was 66% and the EC50 [2] was 117 nM. The “ERβ % of Max E2 Response” value [2] was 121%, the “HA (hyaluronic acid), percent” value ([3]; 3% topical) was 34% and the “ST (skin thickness), percent” value ([3]; 3% topical) was 21%.

With “1-[3-(4-Hydroxy-phenyl)-4-phenyl-isoxazol-5-yl]-cyclopropanecarboxylic acid isopropyl ester [Example 61]” the EC50 [1] was 75 nM, the “ERα % of Max E2 Response” value [1] was 21.1% and the EC50 [2] was greater than 10000 nM. The “ERβ % of Max E2 Response” value [2] was greater than 1.83%, the “HA (hyaluronic acid), percent” value ([3]; 3% topical) was 38% and the “ST (skin thickness), percent” value ([3]; 3% topical) was 32%.

`CN(C)CC1(c2onc(-c3ccc(O)cc3)c2-c2ccccc2)CC1.Cl` showed a melting point of 234 °C.

In the case of `CC1(c2onc(-c3ccc(O)cc3)c2-c2ccccc2)CC1` [Example 36, 4-[5-(1-methyl-cyclopropyl)-4-phenyl-isoxazol-3-yl]phenol], the melting point is reported as 212 to 214 °C.

With `CCCC(O)C1(c2onc(-c3ccc(O)cc3)c2-c2ccccc2)CC1` (racemic) [Example 15, (±)-4-{5-[1-(1-Hydroxy-butyl)-cyclopropyl]-4-phenyl-isoxazol-3-yl}-phenol] the EC50 [1] was 24.3 nM, the “ERα % of Max E2 Response” value [1] was 43.8% and the EC50 [2] was 150 nM. The “ERβ % of Max E2 Response” value [2] was 15.6%, the “HA (hyaluronic acid), percent” value ([3]; 3% topical) was 47% and the “ST (skin thickness), percent” value ([3]; 3% topical) was 41%.

`CC[C@H](O)C1(c2onc(-c3ccc(O)cc3)c2-c2ccccc2)CC1` [Example 100, Alt. F, (S)-(+)-4-{5-[1-(1-hydroxy-propyl)-cyclopropyl]-4-phenyl-isoxazol-3-yl}-phenol] gave a melting point of 165 to 166 °C.

In the case of `Cl.Oc1ccc(-c2noc(C3(CN4CCCNCC4)CC3)c2-c2ccccc2)cc1`, the melting point is reported as 193 to 194 °C.

For `COCOCC1(c2onc(-c3ccc(O)cc3)c2-c2ccccc2)CC1` [Example 10, 4-[5-(1-Methoxymethoxymethyl-cyclopropyl)-4-phenyl-isoxazol-3-yl]-phenol], the EC50 [1] was 17.7 nM, the “ERα % of Max E2 Response” value [1] was 15.1% and the EC50 [2] was 197 nM. The “ERβ % of Max E2 Response” value [2] was 1.18%.

With `CCC(=O)OCC1(c2onc(-c3ccc(O)cc3)c2-c2ccccc2)CC1` [Example 57] the EC50 [1] was 245 nM, the “ERα % of Max E2 Response” value [1] was 71.9% and the EC50 [2] was 137 nM. For the same compound, the “ERβ % of Max E2 Response” value [2] was 112%.

For `COc1ccc(-c2nnc(C3(c4onc(-c5ccc(O)cc5)c4-c4ccccc4)CC3)o2)cc1` [Example 129, 4-(5-{1-[5-(4-methoxyphenyl)-1,3,4-oxadiazol-2-yl]cyclopropyl}-4-phenylisoxazol-3-yl)phenol], the EC50 [1] was no less than 10000 nM, the “ERα % of Max E2 Response” value [1] was 19.1% and the EC50 [2] was greater than 10000 nM. The “ERβ % of Max E2 Response” value [2] was 0.625%.

For `Oc1ccc(-c2noc(C3(C[n+]4ccccc4)CC3)c2-c2ccccc2)cc1.[Cl-]`, the melting point was 244 to 245 °C.

In the case of `COCC(=O)OCC1(c2onc(-c3ccc(O)cc3)c2-c2ccccc2)CC1` [Example 53], the EC50 [1] is reported as 45.6 nM, the “ERα % of Max E2 Response” value [1] is reported as 85.4% and the EC50 [2] is reported as 71.1 nM. The “ERβ % of Max E2 Response” value [2] was 79%.

For `CC(C)C(O)C1(c2onc(-c3ccc(O)cc3)c2-c2ccccc2)CC1` (racemic) [Example 17, (±)-4-{5-[1-(1-Hydroxy-2-methyl-propyl)-cyclopropyl]-4-phenyl-isoxazol-3-yl}-phenol], the EC50 [1] was 34.4 nM, the “ERα % of Max E2 Response” value [1] was 56.8% and the EC50 [2] was 126 nM. For the same compound, the “ERβ % of Max E2 Response” value [2] was 3.82%.
